Where two headings read alike, the source gives them in different places.
Key:
[1] = tested on: RMUG-S; assay: Modified cell proliferation assay (CellTiter-Glo), RMUG-S, Examples 12-44; type: cell-based; details: Examples 12-44: modified protocol, 384-well, 300 cells per well, 120 h; highest concentration tested 9000 nM; read-out: RMUG-S GI50 (high PARG dependency)
Description: (§1) The cell proliferation assay protocol was modified and used for RMUG-S for Examples 12-44, and subsequently used to test Examples 1-44 in the NCI-H1650 cell line.
(§2) NCI-H1650 (ATCC, #CRL-5883) or RMUG-S were seeded on day 1 at 300 cells per well in a 384-well plate (Greiner, #781080) that assure assay linearity and optimal signal intensity in 25 μL of RPMI1640 media (Pan Biotech, #P04-22100) containing 10% FCS (Capricorn, #FBS-11A; Lot. CP22-5141) and 1% Glutamine (Pan Biotech, #P04-80100). After incubation for 24 h in humidified chambers at 37° C./5% CO2, compounds/DMSO were dispensed at different concentrations using an Echo 520 (Beckman Coulter). Cells were further incubated for 120 h at 37° C. and 5% CO2. Cells treated with the compound vehicle DMSO were used as negative controls and cells treated with 10 μM Staurosporine (LC Laboratories, #S-9300) served as positive controls.
(§3) At day 6 the CellTiter Glo Reagent was prepared according to the instructions of the kit (Promega Inc.): Reagent was mixed 1:1 with cell culture medium. Thereon, mixture and assay plates were equilibrated at room temperature for 20 min. Equal volumes of the reagent-medium-mixture were added to the volume of culture medium present in each well. The plates were mixed at […] for 2 minutes on an orbital shaker (Timix5, Edmund Buehler GmbH). The microplates were then incubated at room temperature for 10 minutes for stabilization of the luminescent signal. Following incubation, the luminescence was recorded on a Victor X5 microplate reader (Perkin Elmer) using a 200 ms integration time. The data was then analyzed with Excel using the XLFIT Plugin (dose response Fit 205) for determination of the concentration necessary for half-maximal inhibition (i.e. the inflection point of the fitted curve).
(§4) As quality control the Z′-factor was calculated from 16 positive and negative control values. Only assay results showing a Z′-factor≥0.5 were used for further analysis.

[2] = biological target: human PARG (PARG-NanoLuc fusion in HEK293T cells) (Homo sapiens (Human), UniProt Q86W56); assay: PARG NanoBRET-based cellular target engagement assay; type: cell-based; details: HEK293T cells transfected with PARG-NanoLuc, NanoBRET probe 0.89 μM, 2 hours; read-out: PARG TE IC50
Sequence of human PARG (PARG-NanoLuc fusion in HEK293T cells) (Q86W56 whole entry, the tested form may be a part): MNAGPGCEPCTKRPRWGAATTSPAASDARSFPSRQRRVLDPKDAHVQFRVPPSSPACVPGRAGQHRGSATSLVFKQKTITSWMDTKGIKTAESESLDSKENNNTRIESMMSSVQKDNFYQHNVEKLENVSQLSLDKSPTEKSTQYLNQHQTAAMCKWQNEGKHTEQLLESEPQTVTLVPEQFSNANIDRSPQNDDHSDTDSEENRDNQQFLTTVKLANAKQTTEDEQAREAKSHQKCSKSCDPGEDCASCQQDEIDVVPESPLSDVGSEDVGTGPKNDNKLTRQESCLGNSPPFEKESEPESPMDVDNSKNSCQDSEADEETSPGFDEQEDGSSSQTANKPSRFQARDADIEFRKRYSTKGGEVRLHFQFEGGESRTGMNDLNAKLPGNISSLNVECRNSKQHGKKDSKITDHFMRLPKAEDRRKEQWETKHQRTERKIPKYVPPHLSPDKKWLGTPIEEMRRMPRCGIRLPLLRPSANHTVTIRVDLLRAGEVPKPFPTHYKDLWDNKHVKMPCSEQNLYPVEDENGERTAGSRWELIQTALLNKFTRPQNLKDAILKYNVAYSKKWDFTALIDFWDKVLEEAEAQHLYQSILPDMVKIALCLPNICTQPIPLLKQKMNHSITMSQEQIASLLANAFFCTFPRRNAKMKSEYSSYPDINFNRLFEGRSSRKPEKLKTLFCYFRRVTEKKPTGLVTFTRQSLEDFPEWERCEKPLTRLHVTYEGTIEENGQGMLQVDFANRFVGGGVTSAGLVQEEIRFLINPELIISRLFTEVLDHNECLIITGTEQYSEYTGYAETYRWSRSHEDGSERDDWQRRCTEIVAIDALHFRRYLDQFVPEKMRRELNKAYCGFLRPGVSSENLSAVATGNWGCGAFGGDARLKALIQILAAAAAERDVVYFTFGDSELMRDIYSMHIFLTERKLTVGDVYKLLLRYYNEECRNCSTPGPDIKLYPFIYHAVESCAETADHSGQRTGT
Outline: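 HEK293T cells transiently expressing full-length human PARG with C-terminal NanoLuc, plated 24 h, then given compound (8-point series, 0.5% DMSO) for 15 min at room temperature. NanoBRET tracer added at 0.89 μM final, 2 h at 37° C.; BRET ratio (460/645 nm) fitted by 4-parameter logistic to give IC50.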

[3] = tested on: NCI-H1650; assay: Modified cell proliferation assay (CellTiter-Glo), NCI-H1650; type: cell-based; details: modified protocol, 384-well, 300 cells per well, 120 h, highest concentration tested 30000 nM, read-out: NCI-H1650 GI50 (high PARG dependency)
Description: as §1, §2, §3, §4

[4] = biological target: Recombinant His-tagged human PARG protein (Homo sapiens (Human), UniProt Q86W56); assay: PARG enzymatic assay (TFMU-ADPr fluorescence); type: biochemical; details: 1 nM enzyme, 200 μM TFMU-ADPr, read after 30 minutes
Sequence of Recombinant His-tagged human PARG protein (Q86W56 whole entry): as the sequence (Q86W56 whole entry, the tested form may be a part) above
Outline: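 Sf21-expressed His-tagged human PARG (1 nM) preincubated 15 min with compound (8-point series, 0.5% DMSO) in pH 7.4 phosphate/KCl/β-mercaptoethanol buffer, then 200 μM TFMU-ADPr added. Fluorescence (ex 380/em 535 nm) read after 30 min; IC50 from 4-parameter logistic fit, no-enzyme control as bottom.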

Question: What does the source list for `CO/N=c1\[nH]c2c(C3=C[C@@H](C)N(C(=O)C4(C)CC4)CC3)cc(S(=O)(=O)NC3(C)CC3)cc2c(=O)n1Cc1cnn(C)c1` [Example 30, (2E)-2-methoxyimino-N-(1-methylcyclopropyl)-3-[(1-methylpyrazol-4-yl)methyl]-4-oxo-8-[(2R)-2-methyl-1-(1-methylcyclopropanecarbonyl)-3,6-dihydro-2H-pyridin-4-yl]-1H-quinazoline-6-sulfonamide/(2E)-2-methoxyimino-N-(1-methylcyclopropyl)-3-[(1-methylpyrazol-4-yl)methyl]-4-oxo-8-[(6R)-6-methyl-1-(1-methylcyclopropanecarbonyl)-3,6-dihydro-2H-pyridin-4-yl]-1H-quinazoline-6-sulfonamide]?
Answer: GI50 [1]: < 500 nM; IC50 [2]: < 30 nM; GI50 [3]: < 500 nM; IC50 [4]: < 30 nM

Question: Which GI50 [1] does the source give for `CO/N=c1\[nH]c2c(C3CCN(C(C)=O)[C@H](C)C3)cc(S(=O)(=O)NC3(C)CC3)cc2c(=O)n1Cc1cnn(C)c1` (stereo partly drawn) [Example 26, (2E)-2-methoxyimino-N-(1-methylcyclopropyl)-3-[(1-methylpyrazol-4-yl)methyl]-4-oxo-8-[(2R)-1-acetyl-2-methyl-4-piperidyl]-1H-quinazoline-6-sulfonamide] here?
Answer: 2000 to 9000 nM

Question: What about the IC50 [2] of the same molecule?
Answer: < 30 nM

Question: What about the GI50 ([3]; Homo sapiens, NCI-H1650) of the same molecule?
Answer: 500 to 2000 nM

Question: What about the IC50 [4] of the same molecule?
Answer: < 30 nM

Question: `CO/N=c1\[nH]c2c(C3=C[C@@H](C)N(C(C)=O)CC3)cc(S(=O)(=O)NC3(C)CC3)cc2c(=O)n1Cc1cnn(C)c1` [Example 29, (2E)-2-methoxyimino-N-(1-methylcyclopropyl)-3-[(1-methylpyrazol-4-yl)methyl]-4-oxo-8-[(2R)-1-acetyl-2-methyl-3,6-dihydro-2H-pyridin-4-yl]-1H-quinazoline-6-sulfonamide/(2E)-2-methoxyimino-N-(1-methylcyclopropyl)-3-[(1-methylpyrazol-4-yl)methyl]-4-oxo-8-[(6R)-1-acetyl-6-methyl-3,6-dihydro-2H-pyridin-4-yl]-1H-quinazoline-6-sulfonamide] was tested. Which GI50 [1] did it give?
Answer: 500 to 2000 nM

Question: What about the IC50 [2] of the same molecule?
Answer: < 30 nM

Question: And the GI50 [3]?
Answer: 500 to 2000 nM

Question: And the IC50 [4]?
Answer: < 30 nM

Question: Which results are given for `CO/N=c1\[nH]c2c(C3CCN(C(=O)C4(C)CC4)[C@H](C)C3)cc(S(=O)(=O)NC3(C)CC3)cc2c(=O)n1Cc1cnn(C)c1` (stereo partly drawn) [Example 27, (2E)-2-methoxyimino-N-(1-methylcyclopropyl)-3-[(1-methylpyrazol-4-yl)methyl]-4-oxo-8-[(2R)-2-methyl-1-(1-methylcyclopropanecarbonyl)-4-piperidyl]-1H-quinazoline-6-sulfonamide]?
Answer: GI50 [1]: < 500 nM; IC50 [2]: < 30 nM; GI50 ([3]; Homo sapiens, NCI-H1650): < 500 nM; IC50 [4]: < 30 nM

Question: What does the source list for `CO/N=c1\[nH]c2c(C3=C[C@@H](C)N(C)CC3)cc(S(=O)(=O)NC3(C)CC3)cc2c(=O)n1Cc1cnn(C)c1` [Example 28, (2E)-2-methoxyimino-N-(1-methylcyclopropyl)-3-[(1-methylpyrazol-4-yl)methyl]-4-oxo-8-[(2R)-1,2-dimethyl-3,6-dihydro-2H-pyridin-4-yl]-1H-quinazoline-6-sulfonamide/(2E)-2-methoxyimino-N-(1-methylcyclopropyl)-3-[(1-methylpyrazol-4-yl)methyl]-4-oxo-8-[(6R)-1,6-dimethyl-3,6-dihydro-2H-pyridin-4-yl]-1H-quinazoline-6-sulfonamide]?
Answer: GI50 [1]: 500 to 2000 nM; IC50 [2]: < 30 nM; GI50 [3]: < 500 nM; IC50 [4]: < 30 nM

Question: For `CO/N=c1\[nH]c2c(N3CCN(C)[C@H](C)C3)cc(S(=O)(=O)NC3(C)CC3)cc2c(=O)n1Cc1cnn(C)c1` [Example 21, (2E)-2-methoxyimino-N-(1-methylcyclopropyl)-3-[(1-methylpyrazol-4-yl)methyl]-4-oxo-8-[(3R)-3,4-dimethylpiperazin-1-yl]-1H-quinazoline-6-sulfonamide], which GI50 [1] is on record?
Answer: 500 to 2000 nM

Question: What about the IC50 [2] of the same molecule?
Answer: 30 to 99 nM

Question: What about the GI50 ([3]; Homo sapiens, NCI-H1650) of the same molecule?
Answer: 500 to 2000 nM

Question: And the IC50 [4]?
Answer: < 30 nM

Question: How did the GI50 [1] turn out when `CO/N=c1\[nH]c2c(C3CCN(C)[C@H](C)C3)cc(S(=O)(=O)NC3(C)CC3)cc2c(=O)n1Cc1cnn(C)c1` (stereo partly drawn) [Example 25, (2E)-2-methoxyimino-N-(1-methylcyclopropyl)-3-[(1-methylpyrazol-4-yl)methyl]-4-oxo-8-[(2R)-1,2-dimethyl-4-piperidyl]-1H-quinazoline-6-sulfonamide] was run?
Answer: 500 to 2000 nM

Question: And the IC50 [2]?
Answer: 30 to 99 nM

Question: And the GI50 ([3]; Homo sapiens, NCI-H1650)?
Answer: 500 to 2000 nM

Question: What about the IC50 [4] of the same molecule?
Answer: < 30 nM

Question: Which GI50 [1] does the source give for `CO/N=c1\[nH]c2c(C3CCN[C@H](C)C3)cc(S(=O)(=O)NC3(C)CC3)cc2c(=O)n1Cc1cnn(C)c1` (stereo partly drawn) [Example 24, (2E)-2-methoxyimino-N-(1-methylcyclopropyl)-3-[(1-methylpyrazol-4-yl)methyl]-4-oxo-8-[(2R)-2-methyl-4-piperidyl]-1H-quinazoline-6-sulfonamide] here?
Answer: 2000 to 9000 nM

Question: And the IC50 [2]?
Answer: 100 to 1000 nM

Question: And the GI50 ([3]; Homo sapiens, NCI-H1650)?
Answer: > 2000 nM

Question: What about the IC50 [4] of the same molecule?
Answer: < 30 nM

Question: Which IC50 [2] does the source give for `CO/N=c1\[nH]c2c(N3CCN(C(C)=O)[C@H](C)C3)cc(S(=O)(=O)NC3(C)CC3)cc2c(=O)n1Cc1cnn(C)c1` [Example 12, (2E)-2-methoxyimino-N-(1-methylcyclopropyl)-3-[(1-methylpyrazol-4-yl)methyl]-4-oxo-8-[(3R)-4-acetyl-3-methyl-piperazin-1-yl]-1H-quinazoline-6-sulfonamide] here?
Answer: < 30 nM

Question: And the GI50 ([3]; Homo sapiens, NCI-H1650)?
Answer: < 500 nM

Question: What about the IC50 [4] of the same molecule?
Answer: < 30 nM
